Experiments:
JJN-3 cells = experiment: Biological Assay C: antiproliferative activity on JJN-3 cells (CellTiter-Glo); type: cell-based, human; details: 72 hr treatment, averaged values
Method: (§1) Determination of Antiproliferative Activity on LP-1, L-363 and JJN-3 Cells
(§2) All compounds tested were dissolved in DMSO and further dilutions were made in culture medium. Final DMSO concentration was 0.3% (v/v) in cell proliferation assays. Viability was assessed using CellTiter-Glo cell viability assay kit (Promega). The human LP-1, L-363 and JJN-3 cells (DSMZ) were cultured in RPMI 1640 medium supplemented with 2 mM L-glutamine, and 10% fetal calf serum (PAA). Cells were routinely kept as suspension cells at 37° C. in a humidified 5% CO2 atmosphere. Cells were passaged at a seeding density of 0.2×10^6/ml twice a week. Cells were seeded in black tissue culture treated 96-well plates (Perkin Elmer). Densities used for plating ranged from 2,000 to 6,000 cells per well in a total volume of 75 μl medium. After twenty four hours, drugs and/or solvents were added (25 μl) to a final volume of 100 μl. Following 72 hr of treatment plates were removed from the incubator and allowed to equilibrate to room temperature for approx 10 min. 100 μl CellTiter-Glo reagent was added to each well that was then covered (Perkin Elmer Topseal) and shaken on plate shaker for 10 min. Luminescence was measured on a HTS Topcount (Perkin Elmer). Within an experiment, the results for each treatment were the mean of 2 replicate wells. For initial screening purposes, compounds were tested using a 9 point dilution curve (serial 1:3 dilutions). For each experiment, controls (containing no drug) and a blank incubation (containing cells read at the time of compound addition) were run in parallel. The blank value was subtracted from all control and sample values. For each sample, the mean value for cell growth (in relative light units) was expressed as a percentage of the mean value for cell growth of the control.

L-363 cells = experiment: Biological Assay C: antiproliferative activity on L-363 cells (CellTiter-Glo); type: cell-based, human; details: 72 hr treatment, averaged values
Method: as §1, §2

[1] = biological target: Recombinant Human NF-kappaB-Inducing Kinase (NIK/MAP3K14) (Homo sapiens, UniProt Q99558); experiment: Biological Assay A2: inhibition of auto-phosphorylation of recombinant human NIK/MAP3K14 (AlphaScreen); type: biochemical; details: auto-phosphorylation; averaged over all measurements on all batches; read-out: αscreen IC50
Chain of Recombinant Human NF-kappaB-Inducing Kinase (NIK/MAP3K14) (Q99558 whole entry): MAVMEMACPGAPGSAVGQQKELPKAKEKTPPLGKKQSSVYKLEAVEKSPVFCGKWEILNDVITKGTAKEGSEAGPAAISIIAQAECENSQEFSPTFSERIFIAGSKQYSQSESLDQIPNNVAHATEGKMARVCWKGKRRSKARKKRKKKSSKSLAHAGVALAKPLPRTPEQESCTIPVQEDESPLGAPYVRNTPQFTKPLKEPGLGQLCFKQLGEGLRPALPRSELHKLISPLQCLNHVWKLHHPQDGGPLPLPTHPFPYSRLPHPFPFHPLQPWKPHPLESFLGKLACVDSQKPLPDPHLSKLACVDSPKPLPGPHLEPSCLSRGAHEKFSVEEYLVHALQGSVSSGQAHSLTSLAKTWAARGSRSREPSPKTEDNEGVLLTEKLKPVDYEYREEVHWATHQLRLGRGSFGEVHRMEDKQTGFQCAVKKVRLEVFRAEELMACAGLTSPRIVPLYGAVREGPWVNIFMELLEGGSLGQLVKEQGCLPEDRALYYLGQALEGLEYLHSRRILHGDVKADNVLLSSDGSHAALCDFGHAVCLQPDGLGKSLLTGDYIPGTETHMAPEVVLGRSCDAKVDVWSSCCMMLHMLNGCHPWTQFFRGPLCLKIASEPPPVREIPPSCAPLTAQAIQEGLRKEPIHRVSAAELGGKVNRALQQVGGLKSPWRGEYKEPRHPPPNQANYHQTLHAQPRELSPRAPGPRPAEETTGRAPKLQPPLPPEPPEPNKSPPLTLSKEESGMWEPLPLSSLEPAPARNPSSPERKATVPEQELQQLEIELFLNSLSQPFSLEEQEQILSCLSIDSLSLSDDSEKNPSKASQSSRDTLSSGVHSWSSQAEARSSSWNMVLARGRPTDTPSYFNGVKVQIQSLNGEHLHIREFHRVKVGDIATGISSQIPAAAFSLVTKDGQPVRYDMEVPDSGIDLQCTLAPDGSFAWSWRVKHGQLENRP
Method: Inhibition of Auto-Phosphorylation of Recombinant Human NF-kappaB-Inducing Kinase (NIK/MAP3K14) Activity (AlphaScreen®)
NIK/MAP3K14 auto-phosphorylation activity was measured using the AlphaScreen® (αscreen) format (Perkin Elmer). All compounds tested were dissolved in dimethyl sulfoxide (DMSO) and further dilutions were made in assay buffer. Final DMSO concentration was 1% (v/v) in assays. Assay buffer was 50 mM Tris pH 7.5 containing 1 mM EGTA (ethylene glycol tetraacetic acid), 1 mM DTT (dithiothreitol), 0.1 mM Na3VO4, 5 mM MgCl2, 0.01% Tween 20. Assays were carried out in 384 well Alphaplates (Perkin Elmer). Incubations consisted of compound, 25 microM Adenosine-5′-triphosphate (ATP), and 0.2 nM NIK/MAP3K14. Incubations were initiated by addition of GST-tagged NIK/MAP3K14 enzyme, carried out for 1 h at 25° C. and terminated by addition of stop buffer containing anti-phospho-IKK Ser176/180 antibody. Protein A Acceptor and Glutathione-Donor beads were added before reading using an EnVision® Multilabel Plate Reader (Perkin Elmer). Signal obtained in the wells containing blank samples was subtracted from all other wells and IC50's were determined by fitting a sigmoidal curve to % inhibition of control versus Log10 compound concentration.

LP-1 cells = experiment: Biological Assay C: antiproliferative activity on LP-1 cells (CellTiter-Glo); type: cell-based, human; details: 72 hr treatment, averaged values
Method: as §1, §2

SMILES | IC50 [1] [nM] | EC50 (JJN-3 cells; Homo sapiens, JJN-3, 72 h) [nM] | EC50 (L-363 cells; Homo sapiens, L-363, 72 h) [nM] | EC50 (LP-1 cells; Homo sapiens, LP-1, 72 h) [nM] | EC50 (JJN-3 cells) [nM] | EC50 (L-363 cells) [nM] | EC50 (LP-1 cells) [nM]
[2H]C([2H])([2H])C(O)(C#Cc1cc2c(-c3nc(N)ncc3F)cn(C3CN(C4CC4)C3)c2cn1)C([2H])([2H])[2H] [Compound 160] | 82 | 110 | 93 | 210 | – | – | –
Nc1ncc(F)c(-c2cn(C3COC3)c3cnc(C#CC(O)(CF)C4CC4)cc23)n1 (stereo not shown) [Compound 137] | 53 | 550 | 380 | 1990 | – | – | –
CC(O)(C#Cc1cc2c(-c3ccnc(N)n3)cn(C3CCN(C4CC4)CC3)c2cn1)C1CC1 (stereo not shown) [Compound 164] | 89 | 390 | 270 | 680 | – | – | –
CN1CCC(n2cc(-c3ccnc(N)n3)c3cc(C#CC(C)(C)O)ncc32)CC1 [Compound 77] | 88 | 570 | 320 | 4000 | – | – | –
CC(O)(C#Cc1cc2c(-c3nc(N)ncc3F)cn(C3CCN(CC4CC4)CC3)c2cn1)C1CC1 (stereo not shown) [Compound 165] | 46 | 220 | 200 | 460 | – | – | –
CC(C)(O)C#Cc1cc2c(-c3nc(N)ncc3C#N)cn(CC3CCOCC3)c2cn1 [Compound 75] | 35 | 540 | 670 | > 10000 | – | – | –
CN1CCN(C(=O)n2cc(-c3nc(N)ncc3F)c3cc(C#CC(C)(O)C4CC4)ncc32)CC1 (stereo not shown) [Compound 134] | 110 | 4100 | 3000 | 24000 | – | – | –
CCN1CCC(n2cc(-c3nc(N)ncc3F)c3cc(C#CC(C)(C)O)ncc32)CC1 [Compound 85] | 33 | 44 | 15 | 190 | – | – | –

Second part, led by results:

IC50 [1] [nM] | SMILES | EC50 (JJN-3 cells; Homo sapiens, JJN-3, 72 h) [nM] | EC50 (L-363 cells; Homo sapiens, L-363, 72 h) [nM] | EC50 (LP-1 cells; Homo sapiens, LP-1, 72 h) [nM] | EC50 (JJN-3 cells) [nM] | EC50 (L-363 cells) [nM] | EC50 (LP-1 cells) [nM]
21 | CC(O)(C#Cc1cc2c(-c3nc(N)ncc3F)cn(C3CCOC3)c2cn1)C1CC1 (stereo not shown) [Compound 131] | 150 | 89 | 440 | – | – | –
76 | COCC(C)n1cc(-c2nc(N)ncc2F)c2cc(C#CC(C)(O)C3CC3)ncc21 (stereo not shown) [Compound 128] | 130 | 120 | 310 | – | – | –
140 | COCCN1CCC(n2cc(-c3nc(N)ncc3F)c3cc(C#CC(C)(O)C4CC4)ncc32)CC1 (stereo not shown) [Compound 126] | – | – | – | 270 | 280 | 640
68 | CN1CC(n2cc(-c3nc(N)ncc3F)c3cc(C#CC(C)(O)C4CC4)ncc32)C1 (stereo not shown) [Compound 135] | 180 | 64 | 410 | – | – | –
7 | COCCCn1cc(-c2nc(N)ncc2F)c2cc(C#CC3(O)CCC3)ncc21 [Compound 95] | 150 | 95 | 470 | – | – | –
38 | COC(C)(C)Cn1cc(-c2nc(N)ncc2F)c2cc(C#CC(C)(O)C3CC3)ncc21 (stereo not shown) [Compound 101] | 160 | 160 | 220 | – | – | –
230 | COCCCn1cc(-c2nc(N)ncc2F)c2cc(C#CC(C)(O)C3CC3)ncc21 (single isomer, unassigned) [Compound 119] | – | – | – | 700 | 900 | 2100
170 | COCCCn1cc(-c2nc(N)ncc2F)c2cc(C#CC(C)(O)C3CC3)nc(C(F)F)c21 (stereo not shown) [Compound 96] | > 10000 | 6600 | > 10000 | – | – | –
15 | COCCCn1cc(-c2nc(N)ncc2F)c2cc(C#CC(C)(O)C3CC3)ncc21 (stereo not shown) [Compound 88] | 130 | 110 | 220 | – | – | –
44 | CNc1ncc(F)c(-c2cn(CCCOC)c3cnc(C#CC(C)(C)O)cc23)n1 [Compound 90] | 720 | 510 | 740 | – | – | –
88 | CN1CCC(n2cc(-c3nc(N)ncc3F)c3cc(C#CC(C)(O)C4CC4)ncc32)C1 (stereo not shown) [Compound 107] | 78 | 57 | 150 | – | – | –

Source: patent US9643964B2, “3-(2-aminopyrimidin-4-yl)-5-(3-hydroxypropynyl)-1H-pyrrolo[2,3-C]pyridine derivatives as NIK inhibitors for the treatment of cancer” (Janssen Pharmaceutica NV, priority 2013, dated 2017)
